ChEMBL document CHEMBL1201862, “PubChem BioAssay data set” (2004)
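Interpolation was linear, between the two tested concentrations surrounding the appropriate level; five concentrations were tested over 48 hours in 96-well plates. GI50: concentration for 50% inhibition of growth.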 The source made the active and inactive calls. No stated cut-off is given here; in the data, active = GI50 up to about 1.1 µM and inactive = higher.

Columns and labels:
Experiment in all cases: NCI-60 cell line screen, 48 h
HCT-116 = tested on: HCT-116
786-0 = tested on: 786-0
HCC 2998 = tested on: HCC 2998
HT-29 = tested on: HT-29
SR = tested on: SR
Hs-578T = tested on: Hs-578T
MDA-N = tested on: MDA-N
MCF7 = tested on: MCF7
IGROV-1 = tested on: IGROV-1
HCT-15 = tested on: HCT-15
MOLT-4 = tested on: MOLT-4
UACC-257 = tested on: UACC-257
RPMI-8226 = tested on: RPMI-8226
CCRF-CEM = tested on: CCRF-CEM
DU-145 = tested on: DU-145
ACHN = tested on: ACHN
NCI-H226 = tested on: NCI-H226
RXF 393 = tested on: RXF 393
TK-10 = tested on: TK-10
MDA-MB-231 = tested on: MDA-MB-231

| SMILES | GI50 (HCT-116) | GI50 (786-0) | GI50 (HCC 2998) | GI50 (HT-29) | GI50 (SR) | GI50 (Hs-578T) | GI50 (MDA-N) | GI50 (MCF7) | GI50 (IGROV-1) | GI50 (HCT-15) [µM] | GI50 (MOLT-4) | GI50 (UACC-257) | GI50 (RPMI-8226) | GI50 (CCRF-CEM) | GI50 (DU-145) | GI50 (ACHN) | GI50 (NCI-H226) | GI50 (RXF 393) | GI50 (TK-10) | GI50 (MDA-MB-231) |
| --- | --- | --- | --- | --- | --- | --- | --- | --- | --- | --- | --- | --- | --- | --- | --- | --- | --- | --- | --- | --- |
| O=C(Nc1ccccc1F)c1cc2ccc(O)cc2o/c1=N\c1ccccc1F | 2.06 µM (inactive) | 1.79 µM (inactive) | 2.99 µM (inactive) | 17.2 µM (inactive) | 1.87 µM (inactive) | 2.33 µM (inactive) | 2.29 µM (inactive) | 3.2 µM (inactive) | 2.23 µM (inactive) | 2.47 | 1.74 µM (inactive) | 2.74 µM (inactive) | 2.04 µM (inactive) | 1.5 µM (inactive) | 1.95 µM (inactive) | 2.23 µM (inactive) | – | – | – | – |
| CC[N+](C)(C)c1ccc(C(=C2C=CC(=[N+](C)C)C=C2)c2ccc(N(C)C)cc2)cc1 | 4.2 µM (inactive) | 5.94 µM (inactive) | 6.17 µM (inactive) | 4.93 µM (inactive) | 10.6 µM (inactive) | – | – | – | 12 µM (inactive) | 22.2 | 12.4 µM (inactive) | 13.2 µM (inactive) | 2.19 µM (inactive) | 7.05 µM (inactive) | – | 10.8 µM (inactive) | 19.7 µM (inactive) | 37.3 µM (inactive) | 28 µM (inactive) | – |
| CCSc1[nH]c(NC(=S)NC(=O)c2ccccc2Cl)c(C(N)=O)c1C(N)=O | – | > 10 µM (inactive) | > 10 µM (inactive) | > 10 µM (inactive) | > 10 µM (inactive) | – | > 10 µM (inactive) | > 10 µM (inactive) | > 10 µM (inactive) | > 10 | > 10 µM (inactive) | > 10 µM (inactive) | > 10 µM (inactive) | > 10 µM (inactive) | > 10 µM (inactive) | – | – | 4.2 µM (inactive) | > 10 µM (inactive) | > 10 µM (inactive) |
| CCOC(=O)c1cn(-c2ccccc2)c(=S)n2c1nc1ccccc12 | 42.6 µM (inactive) | 43.4 µM (inactive) | > 52.7 µM (inactive) | 30.5 µM (inactive) | 13.6 µM (inactive) | – | 41.1 µM (inactive) | 35.5 µM (inactive) | 42.5 µM (inactive) | 41.5 | 4.65 µM (inactive) | 40 µM (inactive) | 18.1 µM (inactive) | 5.53 µM (inactive) | 63.2 µM (inactive) | 56.1 µM (inactive) | 27.3 µM (inactive) | 54.8 µM (inactive) | 96.8 µM (inactive) | > 63.7 µM (inactive) |
| COc1cccc(C=C(C#N)C#N)c1OC | > 100 µM (inactive) | > 100 µM (inactive) | > 100 µM (inactive) | > 100 µM (inactive) | > 100 µM (inactive) | – | > 100 µM (inactive) | > 100 µM (inactive) | > 100 µM (inactive) | > 100 | > 100 µM (inactive) | > 100 µM (inactive) | 43.5 µM (inactive) | 83.6 µM (inactive) | > 100 µM (inactive) | > 100 µM (inactive) | > 100 µM (inactive) | > 100 µM (inactive) | > 100 µM (inactive) | – |
| C(=C\c1ccco1)/c1cccc(/C=C/c2ccco2)n1 | > 50 µM (inactive) | > 50 µM (inactive) | > 50 µM (inactive) | > 50 µM (inactive) | 33.6 µM (inactive) | > 50 µM (inactive) | > 50 µM (inactive) | 0.283 µM (active) | > 50 µM (inactive) | > 50 | > 50 µM (inactive) | > 50 µM (inactive) | > 50 µM (inactive) | > 50 µM (inactive) | > 50 µM (inactive) | > 50 µM (inactive) | > 50 µM (inactive) | > 50 µM (inactive) | > 50 µM (inactive) | – |
| CC(=O)OC(/C=C/c1ccccc1)=C(OC(C)C)/C1=C(\c2ccccc2)SCCCSC1=O | > 100 µM (inactive) | > 100 µM (inactive) | > 100 µM (inactive) | > 100 µM (inactive) | – | > 100 µM (inactive) | – | 36 µM (inactive) | – | > 100 | > 100 µM (inactive) | > 100 µM (inactive) | 35.6 µM (inactive) | 91 µM (inactive) | > 100 µM (inactive) | > 100 µM (inactive) | > 100 µM (inactive) | 74.3 µM (inactive) | > 100 µM (inactive) | > 100 µM (inactive) |
| CCOC(=O)/C(=C\NC(C)(C)C)c1nc2ccccc2o1 | 37.3 µM (inactive) | 24.6 µM (inactive) | – | 27.7 µM (inactive) | 25.6 µM (inactive) | 28.3 µM (inactive) | 32 µM (inactive) | 29.3 µM (inactive) | 51.9 µM (inactive) | 36.6 | – | 20.1 µM (inactive) | 22.2 µM (inactive) | 16.3 µM (inactive) | 43.4 µM (inactive) | 27.6 µM (inactive) | 20.9 µM (inactive) | 24.7 µM (inactive) | 27.2 µM (inactive) | – |
| CC1(Br)C(=O)NC(=O)N([C@H]2C[C@H](O)[C@@H](CO)O2)C1N=[N+]=[N-] (some centres undefined) | > 100 µM (inactive) | > 100 µM (inactive) | > 100 µM (inactive) | > 100 µM (inactive) | > 100 µM (inactive) | – | – | – | > 100 µM (inactive) | > 100 | > 100 µM (inactive) | > 100 µM (inactive) | > 100 µM (inactive) | > 100 µM (inactive) | – | > 100 µM (inactive) | > 100 µM (inactive) | > 100 µM (inactive) | > 100 µM (inactive) | – |
| COC(=O)C12OCC34C(CC5C(C)C6=CC(=O)OC6=CC5(C)C3C(O)C1O)OC(=O)C(OC(C)=O)C24 (centres undefined) | 13.7 µM (inactive) | 14.5 µM (inactive) | 16.1 µM (inactive) | 16.3 µM (inactive) | 18.3 µM (inactive) | – | – | – | 27.8 µM (inactive) | 15.3 | 14.8 µM (inactive) | 14.1 µM (inactive) | 12.1 µM (inactive) | 6.37 µM (inactive) | – | 15.7 µM (inactive) | 24.8 µM (inactive) | 13.7 µM (inactive) | 17.4 µM (inactive) | – |
| O=C(Nc1ccccc1)OC1OC(COC(=O)c2ccccc2)C(OC(=O)c2ccccc2)C1OS(=O)(=O)c1ccc([N+](=O)[O-])cc1 (centres undefined) | > 100 µM (inactive) | > 100 µM (inactive) | > 100 µM (inactive) | > 100 µM (inactive) | > 100 µM (inactive) | 78.7 µM (inactive) | > 100 µM (inactive) | > 100 µM (inactive) | > 100 µM (inactive) | > 100 | > 100 µM (inactive) | > 100 µM (inactive) | > 100 µM (inactive) | > 100 µM (inactive) | > 100 µM (inactive) | > 100 µM (inactive) | > 100 µM (inactive) | > 100 µM (inactive) | > 100 µM (inactive) | – |
| Cn1c(COC(=O)NC2CCCCC2)c(COC(=O)NC2CCCCC2)c2ccc3ccccc3c21 | 33 µM (inactive) | 13.3 µM (inactive) | – | 53.6 µM (inactive) | 2.96 µM (inactive) | 33.2 µM (inactive) | > 100 µM (inactive) | 20.5 µM (inactive) | 19.1 µM (inactive) | 48.1 | 9.31 µM (inactive) | 93.1 µM (inactive) | 49.2 µM (inactive) | 9.77 µM (inactive) | – | 17.2 µM (inactive) | 23.7 µM (inactive) | 24 µM (inactive) | 33.7 µM (inactive) | 69.5 µM (inactive) |
| COc1cc(-c2cc(CCC(=O)Nc3ccccc3[N+](=O)[O-])n(-c3ccc([N+](=O)[O-])cc3[N+](=O)[O-])n2)ccc1O | > 10 µM (inactive) | > 10 µM (inactive) | > 10 µM (inactive) | > 10 µM (inactive) | > 10 µM (inactive) | – | – | – | > 10 µM (inactive) | 40.7 | > 10 µM (inactive) | > 10 µM (inactive) | > 10 µM (inactive) | > 10 µM (inactive) | – | 70.6 µM (inactive) | > 10 µM (inactive) | > 10 µM (inactive) | > 10 µM (inactive) | – |
| Cc1ccc(S(=O)(=O)n2c3c(c4ccccc42)CCN2C[C@H]([C@H](C)Br)CC[C@@H]32)cc1 | – | > 100 µM (inactive) | 82.8 µM (inactive) | > 100 µM (inactive) | 4.01 µM (inactive) | – | > 100 µM (inactive) | 91.8 µM (inactive) | > 100 µM (inactive) | > 100 | 67.1 µM (inactive) | > 100 µM (inactive) | 13.1 µM (inactive) | 86.7 µM (inactive) | > 100 µM (inactive) | > 100 µM (inactive) | > 100 µM (inactive) | > 100 µM (inactive) | > 100 µM (inactive) | > 100 µM (inactive) |
| O=C1C=C(Nc2ccc(S(=O)(=O)Nc3nccs3)cc2)c2ccccc2C1=O | 34.5 µM (inactive) | 36.6 µM (inactive) | 22.2 µM (inactive) | 19.1 µM (inactive) | 39.5 µM (inactive) | 25.8 µM (inactive) | 18.8 µM (inactive) | 18.9 µM (inactive) | 12.5 µM (inactive) | 23.7 | 11.8 µM (inactive) | 31.6 µM (inactive) | 37.3 µM (inactive) | 15.2 µM (inactive) | – | 21 µM (inactive) | 21.9 µM (inactive) | > 100 µM (inactive) | > 100 µM (inactive) | 26.5 µM (inactive) |
| N#CSC1CCCCNC1=O (centres undefined) | 8.45 µM (inactive) | 14.7 µM (inactive) | 16.4 µM (inactive) | 11.5 µM (inactive) | 6 µM (inactive) | 16.1 µM (inactive) | – | 4.07 µM (inactive) | – | 11.8 | 2.48 µM (inactive) | 17.1 µM (inactive) | 5.96 µM (inactive) | 5.55 µM (inactive) | 11.1 µM (inactive) | 14.9 µM (inactive) | 12 µM (inactive) | 13.7 µM (inactive) | 16.1 µM (inactive) | 14.9 µM (inactive) |
